Results taken from patent publication US20070197591A1, “USE OF PALIPERIDONE FOR THE TREATMENT OF A MENTAL DISORDER IN A PSYCHIATRIC PATIENT WITH REDUCED HEPATIC FUNCTION” (priority 2005, published 2007).

Experiment: Plasma protein binding / unbound fraction of paliperidone and its enantiomers
Format: in vitro ADME, human
Conditions: human
Text: Objectives: The primary objective of this study was to investigate the single-dose pharmacokinetics of immediate-release (IR) paliperidone, after oral administration, in subjects having moderate hepatic impairment (“hepatically-impaired subjects”) compared with subjects having normal hepatic function (“healthy subjects”). The secondary objective was to document the plasma protein binding and disposition of the enantiomers of paliperidone. In addition, the tolerability and safety profile of IR paliperidone was compared between hepatically impaired subjects and healthy subjects. Criteria for Evaluation: Pharmacokinetics: Plasma and urine concentrations of the paliperidone enantiomers (+) R078543 and (−) R078544 were determined using an LC-MS/MS method. Concentrations of paliperidone were calculated as the sum of the enantiomer concentrations. In addition, serum and urine concentrations of creatinine were determined for the calculation of CLCR. The protein binding and unbound fraction was determined for the 2 paliperidone enantiomers. The unbound fraction for paliperidone was calculated.

fraction unbound (Healthy Subjects (n = 10)): 0.279 | fraction unbound (Hepatically-Impaired Subjects (n = 10; paliperidone n = 8)): 0.353 | relative increase in unbound fraction vs healthy subjects (vs healthy subjects, read-out: unbound fraction higher in hepatically-impaired subjects): ~0.27
Compound: Cc1nc2n(c(=O)c1CCN1CCC(c3noc4cc(F)ccc34)CC1)CCCC2O (stereo not drawn) [Paliperidone, paliperidone]
